Data: patent US5696117A, “Benzoxazine antimicrobial agents” (Ortho Pharmaceutical Corporation, priority 1995, dated 1997)
Where a name gives a salt, the structure may show the parent alone.

Target: T1, Kinase A and SpoOF (Bacillus subtilis, UniProt P16497)
T1 construct: made in house; host or cells: recombinant E. coli (overexpression)
T1 sequence (P16497 1-606): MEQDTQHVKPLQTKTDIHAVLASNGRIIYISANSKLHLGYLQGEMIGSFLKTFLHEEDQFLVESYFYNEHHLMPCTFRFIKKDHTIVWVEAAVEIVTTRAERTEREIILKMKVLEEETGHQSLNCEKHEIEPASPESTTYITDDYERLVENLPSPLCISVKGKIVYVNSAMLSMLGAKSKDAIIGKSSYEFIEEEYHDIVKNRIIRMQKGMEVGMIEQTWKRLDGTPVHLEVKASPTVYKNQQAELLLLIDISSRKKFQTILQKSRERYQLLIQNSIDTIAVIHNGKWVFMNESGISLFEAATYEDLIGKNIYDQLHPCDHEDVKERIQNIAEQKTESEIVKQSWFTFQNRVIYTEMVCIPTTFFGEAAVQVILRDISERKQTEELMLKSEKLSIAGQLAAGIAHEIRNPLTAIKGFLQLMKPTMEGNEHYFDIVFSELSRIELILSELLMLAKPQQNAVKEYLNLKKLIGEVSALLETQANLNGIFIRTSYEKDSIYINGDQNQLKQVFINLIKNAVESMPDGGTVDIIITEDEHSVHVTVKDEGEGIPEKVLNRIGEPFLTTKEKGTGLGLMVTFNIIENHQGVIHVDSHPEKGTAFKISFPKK
Assay: Autophosphorylation of Kinase A and Transphosphorylation of SpoOF Assay (HPK in vitro assay)
Type: biochemical
Conditions: inhibition of KinA autophosphorylation / SpoOF transphosphorylation, inhibitor concentrations from 1 to 500 μM
Procedure: 1. Autophosphorylation of Kinase A and Transphosphorylation of SpoOF Assay
To study the effect of the compounds of the present invention on the signal transduction process in bacteria, the inhibiting effect of the compounds on the sporulation operon proteins Kinase A and SpoOF was examined. Specifically, the inhibition of autophosphorylation of Kinase A and the transphosphorylation of SpoOF was determined in the following assays. The SpoOF response regulator is the primary substrate for phosphorylation by the protein kinase, Kin A, involved in the sporulation process in bacteria. See D. Burbulys, K. A. Trach, J. A. Hoch, Cell, 64, 545-552 (1991). SpoOF and KinA were prepared from recombinant E. coli overexpressing the proteins (J. Cavanagh et al, Amino Acids, 6, 131-140 (1994) and references therein).
The following stock reagents were either prepared and used promptly or stored at the indicated temperature:
8× Salts: 2M KCl (5 mL), 1M MgCl2 (800 mL), 1M CaCl2 (100 mL), 10 mg/mL phenylmethylsulfonyl fluoride (200 mL), 1M dithioreitol (50 mL), 0.25M Na2 EDTA (32 mL) and H2 O 3.82 mL (-20° C.)
5× Loading Dye: 0.5M TRIS-HCl-pH 6.8 (7.5 mL), 10% SDS (2 mL) 0.1% bromophenol blue (0.5 mL), 100% glycerol (3 mL) and 12.5M 2-mercaptoethanol (0.3 mL)
1-1.3 mg/mL KinA:15 mM TRIS-HCl, pH 8.0, 6 mM KCl; 4 mM 2-mercaptoethanol; 40% glycerol (-20° C.)
1 mg/mL SpoOF: 17.5 mM TRIS-HCl, pH 8.0; 0.7 mM KCl; 0.7 mM MgCl2; 0.7 mM CaCl2; 5mM 2-mercaptoethanol; 30% Glycerol (-20° C.)
5% Stacking Gel: 40% 29:1 acrylamide:bis acrylamide (1.25 mL), 0.5M TRIS-HCl, pH 6.8 (2.5 mL), 10% SDS (0.1 mL), D-H2 O (6.15 mL) 10% ammonium persulfate (100 mL) and TEMED (25 mL)
SDS Running Buffer: TRIS-BASE (3.02 g), glycine (14.4 g) SDS (1 g), D-H2 O (to 1 L)
The reaction mixture was prepared from 8× Salts (87 μL), 1M TRIS, pH 8 (118 μL), 50% glycerol (63 μL), SpoOF (14.1 μL) and KinA (7.0 μL). Microcentrifuge tubes were charged with the reaction mixture (18.5 μL) and a 1.0 mM solution of the test compound in 5% DMSO (18.5 μL), and incubated for 15 min on ice. 100 mM ATP solution (3.0 μl, containing 625 μCi [^32 P]ATP) was added, and the mixture left for 10 minutes at room temperature. The reaction was quenched with 5× loading dye (10 μL per tube) and the samples were loaded on a prepared 5% Stacking Gel, or stored on dry ice until ready for use. The prepared wells were filled with SDS Running Buffer, samples were loaded into the wells, and 80 volts were applied to the gel until the dye front reached the bottom of the stacking gel. The voltage was then increased to 250 volts until electrophoresis was complete. Radioactive bands in the gel corresponding to phosphorylated KinA and SpoOF were imaged and quantitated with a phosphoimager.
If either enzyme was inhibited (as evidenced by the absence of labelled protein in the developed gel), an IC50 was calculated by running the assay with a range of inhibitor concentrations from 1 to 500 μM. After electrophoresis of the reaction mixtures, percent inhibition was determined by measuring the concentration of radioactive phosphorus with a phosphoimager and calculating the values using a software program (BioRad Molecular Analyst). IC50 values of less than 500 μM are considered active.

For `N=C(N)NCCc1ccc(OCCC2Oc3ccccc3N(Cc3cccc(F)c3)C2=O)cc1` (stereo not shown) [Compound 31, 3,4-Dihydro-4-(3-fluorobenzyl)-2-{2-[4-(2-guanidinoethyl)phenoxy]ethyl}-3-oxo-2 H-1,4-benzoxazine], the IC50 was 46 µM.
`NCCc1ccc(OCCC2Oc3ccccc3N(Cc3ccc(C(=O)O)cc3)C2=O)cc1` (stereo not shown) [Compound 110, 4-{3,4-Dihydro-2-[2-(4-(2-aminoethyl)phenoxy)]ethyl-3-oxo-2H-1,4-benzoxazin-4-yl}methylbenzoic Acid] was tested, and the IC50 was 324 µM.
Work on `N=C(N)NCCc1ccc(OCCC2Oc3cc([N+](=O)[O-])ccc3N(Cc3cccc([N+](=O)[O-])c3)C2=O)cc1` (stereo not shown) [Compound 91, 3,4-Dihydro-2-{2-[4-(2-guanidinoethyl)phenoxy]ethyl}-7-nitro-4-(3-nitrobenzyl)-3-oxo-2H-1,4-benzoxazine] yielded an IC50 of 33 µM.
`CC(C)(C)OC(=O)NCCc1ccc(OCCC2Oc3ccccc3N(Cc3ccccc3Cl)C2=O)cc1` (stereo not shown) [Compound 17, 2-[2-[4-(2-(t-Butoxycarbonylamino)ethyl)phenoxy]ethyl]-4-(2-chlorobenzyl)-3,4-dihydro-3-oxo-2H-1,4-benzoxazine] showed an IC50 of 352 µM.
With `CC(C)(C)OC(=O)NCCc1ccc(OCCC2Oc3ccccc3N(Cc3cccc(Cl)c3)C2=O)cc1` (stereo not shown) [Compound 144, 2-[2-[4-(2-(t-Butoxycarbonylamino)ethyl)phenoxy]ethyl]-4-(3-chlorobenzyl)-3,4-dihydro-3-oxo-2H-1,4-benzoxazine] the IC50 was 348 µM.
For `N=C(N)NCCc1ccc(OCCC2Oc3ccccc3N(Cc3ccccc3Cl)C2=O)cc1` (stereo not shown) [Compound 20, 4-(2-Chlorobenzyl)-2-[2-[4-(2-guanidinoethyl)phenoxy]ethyl]-3,4-dihydro-3-oxo-2H-1,4-benzoxazine], the IC50 was 16 µM.
`CC(C)(C)OC(=O)N=C(NCCc1ccc(OCCC2Oc3ccccc3N(Cc3cccc(Cl)c3)C2=O)cc1)NC(=O)OC(C)(C)C` (stereo not shown) [Compound 71, 2-{2-[4-[2-(N,N-'Bis-tert-butoxycarbonylguanidino)ethyl]phenoxy]ethyl}-4-(3-chlorobenzyl)-3,4-dihydro-3-oxo-2H-1,4-benzoxazine] showed an IC50 of 300 µM.
With `N=C(N)NCCc1ccc(OCCC2Oc3ccccc3N(Cc3ccc(-c4ccccc4)cc3)C2=O)cc1` (stereo not shown) [Compound 38, 3,4-Dihydro-2-{2-[4-(2-guanidinoethyl)phenoxy]ethyl}-3-oxo-4-(4-phenylbenzyl)-2H-1,4-benzoxazine] the IC50 was 34 µM.
With `Cl.NCCc1ccc(OCCC2Oc3cc([N+](=O)[O-])ccc3N(Cc3cccc(Cl)c3)C2=O)cc1` (stereo not shown) [Compound 82, 2-{2-[4-(2-Aminoethyl)phenoxy]ethyl}-4-(3-chlorobenzyl)-3,4-dihydro-7-nitro-3-oxo-2H-1,4-benzoxazine monohydrochloride] the IC50 was 27 µM.
For `NCc1ccc(OCCC2Oc3ccccc3N(Cc3ccccc3Cl)C2=O)cc1` (stereo not shown) [Compound 14, 2-[2-[4-(Aminomethyl)phenoxy]ethyl]-4-(2-chlorobenzyl)-3,4-dihydro-3-oxo-2H-1,4-benzoxazine], the IC50 was 172 µM.
For `NCCc1ccc(OCCC2Oc3ccccc3N(Cc3ccccc3Cl)C2=O)cc1` (stereo not shown) [Compound 18, 2-[2-[4-(2-Aminoethyl)phenoxy]ethyl]-4-(2-chlorobenzyl)-3,4-dihydro-3-oxo-2H-1,4-benzoxazine], the IC50 was 264 µM.
`Cl.N=C(N)NCCc1ccc(OCCC2Oc3cc([N+](=O)[O-])ccc3N(Cc3cccc(Cl)c3)C2=O)cc1` (stereo not shown) [Compound 84, 3,4-Dihydro-4-(3-chlorobenzyl)-2-{2-[4-(2-guanidinoethyl)phenoxy]ethyl}-7-nitro-3-oxo-2H-1,4-benzoxazine Monohydrochloride] gave an IC50 of 30 µM.
`COc1ccc2c(c1)OC(CCOc1ccc(CCNC(=NC(=O)OC(C)(C)C)NC(=O)OC(C)(C)C)cc1)C(=O)N2Cc1cccc([N+](=O)[O-])c1` (stereo not shown) [Compound 99, 2-{2-[4-(2-(N,N'-Bis-tert-butoxycarbonylguanidino)ethyl)phenoxy]ethyl}-3,4-dihydro-7-methoxy-4-(3-nitrobenzyl)-3-oxo-2H-1,4-benzoxazine] showed an IC50 of 343 µM.
In the case of `CC(C)(C)OC(=O)N=C(NCCc1ccc(OCCC2Oc3ccc(C(F)(F)F)cc3N(Cc3cccc(Cl)c3)C2=O)cc1)NC(=O)OC(C)(C)C` (stereo not shown) [Compound 53, 2-{2-[4-[2-(N,N'-Bis-tert-butoxycarbonylguanidino)ethyl]phenoxy]ethyl}-4-(3-chlorobenzyl)-3,4-dihydro-3-oxo-6-trifluoromethyl-2H-1,4-benzoxazine], the IC50 is reported as 84 µM.
Work on `N=C(N)NCCc1ccc(OCCC2Oc3ccccc3N(Cc3cccc4ccccc34)C2=O)cc1` (stereo not shown) [Compound 43, 3,4-Dihydro-2-{2-[4-(2-guanidinoethyl)phenoxy]ethyl}-4-(1-naphthylmethyl)-3-oxo-2H-1,4-benzoxazine] yielded an IC50 of 13 µM.
In the case of `N=C(N)NCCc1ccc(OCCC2Oc3ccccc3N(Cc3cccc(O)c3)C2=O)cc1` (stereo not shown) [Compound 36, 3,4-Dihydro-2-{2-[4-(2-guanidinoethyl)phenoxy]ethyl}-4-(3-hydroxybenzyl)-3-oxo-2H-1,4-benzoxazine], the IC50 is reported as 72 µM.
`N=C(N)NCCc1ccc(OCCC2Oc3ccc(C(F)(F)F)cc3N(Cc3cccc(Cl)c3)C2=O)cc1` (stereo not shown) [Compound 54, 4-(3-Chlorobenzyl)-3,4-dihydro-2-{2-[4-(2-guanidinoethyl)phenoxy]ethyl}-3-oxo-6-trifluoromethyl-2H-1,4-benzoxazine] gave an IC50 of 14 µM.
Molecule `CC(C)(C)OC(=O)NCCc1cccc(OCCC2Oc3ccccc3N(Cc3ccccc3Cl)C2=O)c1` (stereo not shown) [Compound 15, 2-[2-[3-(2-(t-Butoxycarbonylamino)ethyl)phenoxy]ethyl]-4-(2-chlorobenzyl)-3,4-dihydro-3-oxo-2H-1,4-benzoxazine] has an IC50 of 165 µM.
For `O=C(O)CCc1cccc(OCCC2Oc3ccccc3N(Cc3cccc(Cl)c3)C2=O)c1` (stereo not shown) [Compound 127, 3-[3-[2-{4-(3-Chlorobenzyl)-3,4-dihydro-3-oxo-2H-1,4-benzoxazin-2-yl}ethoxy]phenyl]propionic Acid], the IC50 was 251 µM.
Molecule `N=C(N)NCCc1ccc(OCCC2Oc3ccccc3N(Cc3ccccc3)C2=O)cc1` (stereo not shown) [Compound 28, 4-Benzyl-3,4-dihydro-2-{2-[4-[2-guanidinoethyl]phenoxy]ethyl}-3-oxo-2H-1,4-benzoxazine Hydrochloride 0.7 Hydrate] has an IC50 of 44 µM.
Work on `N=C(N)NCCc1ccc(OCCC2Oc3ccc(-c4ccccc4)cc3N(Cc3cccc(Cl)c3)C2=O)cc1` (stereo not shown) [Compound 52, 4-(3-Chlorobenzyl)-3,4-dihydro-2-{2-[4-(2-guanidinoethyl)phenoxy]ethyl}-3-oxo-6-phenyl-2H-1,4-benzoxazine] yielded an IC50 of 36 µM.
“3,4-Dihydro-4-(2,4-dichlorobenzyl)-2-{2-[4-(2-guanidinoethyl)phenoxy]ethyl}-3-oxo-2H-1,4-benzoxazine [Compound 141]” was tested, and the IC50 was 37 µM.
